The subject of series [1] is L1210 mouse leukemia cells. In words: Combined effect on L1210 mouse leukemia cells (MTT assay). The note with it: MC = 12.5 μg/ml; MD = 25 μg/ml; MZ = 25 μg/ml; overnight. On the technique in general: Tetrazolium dyes change colour on reduction, which living cells bring about.
Procedure: The biological activities of the photooxidation products of MC 540 were determined. Preactivated MC 540 is abbreviated as pMC 540. Assays of antitumor activities of the products were carried out according to published standard methods.
Mouse leukemia L1210 cells (1 × 10^6 cells/ml) were treated wit
different combinations of the indicated compounds (isolated from
preactivated merocyanine 540). After overnight incubation the cell kill
Series [2] has as its system human Burkitt lymphoma Daudi cells. The experiment in a line: Cytotoxic effects on human Burkitt lymphoma Daudi cells (MTT assay). Type of series: cell-based. Here is the method:
Human Burkitt Lymphoma Daudi cells (1×10^6 cells/ml) were treated with different concentrations of Merodantoin. After overnight incubation at 37° C., the tumor cells kill was determined by MTT assay.
Human Burkitt Lymphoma Daudi cells (1×10^6 cells/ml) were treated with different concentrations of Merocil. After overnight incubation at 37° C., the tumor cells kill was determined by MTT assay.
Each cell type (1×10^6 cells/ml; in triplicate) was treated with indicated concentrations of Merocil or Merodantoin. After overnight (20 hr.) or 5 day incubation periods, the cell viability was determined by MTT assay and calculated as a percentage of untreated controls.

In the case of `CCCCN1C(=O)C(=O)N(CCCC)C1=S` [Merodantoin, N,N'-Dibutyl-2-thio-4,5-imidazolindion], the “% Cell Kill” value in series [1] is given as 64%. In addition, the “growth inhibition of cultured Daudi lymphoma cells” value in series [2] (25 μg/ml) is listed as “virtually complete growth inhibition”. Besides, the cytotoxicity at 1.56 µg/mL in series [2] (Homo sapiens, Daudi, 1.56 μg/ml, overnight, 37° C., read-out: % Cell Kill (means ± S.D.)) is 2.75 ± 3.2%. Moreover, the cytotoxicity at 3.13 µg/mL in series [2] (Homo sapiens, Daudi, 3.13 μg/ml, overnight, 37° C., read-out: % Cell Kill (means ± S.D.)) amounted to 6.25 ± 2.99%. Also, in series [2] (Homo sapiens, Daudi, 6.25 μg/ml, overnight, 37° C., read-out: % Cell Kill (means ± S.D.)), the cytotoxicity at 6.25 µg/mL came out at 9.75 ± 1.71%. Further, the cytotoxicity at 12.5 µg/mL in series [2] (Homo sapiens, Daudi, 12.50 μg/ml, overnight, 37° C., read-out: % Cell Kill (means ± S.D.)) was 42 ± 8.68%. The cytotoxicity at 25 µg/mL in series [2] (Homo sapiens, Daudi, 25.00 μg/ml, overnight, 37° C., read-out: % Cell Kill (means ± S.D.)) is 100%.

(Values after US5312919A, “Photooxidation products and derivatives thereof of merocyanine-540, their preparation and uses” (priority 1992, dated 1994).)
